Literature values, collected in US20120065267A1, “COMPOSITIONS INCLUDING 3,5-L-T2 AND METHODS OF USE THEREOF” (priority 2010, published 2012).
Where two headings read alike, the source gives them in different places.

Key:
[1] = test system: TR α1, β1 and β2; conditions: in vitro; cited from earlier work
[2] = test system: hypercholesterolemic patients; conditions: cited from earlier work

Row | Compound | binding affinity relative to that of T2 [1] | patients with coronary artery disease experiencing increased anginal symptoms ([2]; 300 mg daily for 8 months) | patients with coronary artery disease who died suddenly from presumed myocardial infarction ([2]; 300 mg daily for 8 months) | decrease in total serum cholesterol ([2]; 300 mg daily, at 20 weeks) [%] | mean heart rate on treatment ([2]; 300 mg daily, increase from 76) [beats per minute] | efficacy at lower doses ([2]; doses of less than 250 mg/day) | decrease in body weight ([2]; euthyroid subjects, 300 mg daily for 8 months) [%] | decrease in body weight ([2]; hypothyroid patients, 300 mg daily for 8 months) [%]
1 | N[C@@H](Cc1cc(I)c(Oc2ccc(O)c(I)c2)c(I)c1)C(=O)O [T3, (2S)-2-amino-3-[4-(4-hydroxy-3-iodophenoxy)-3,5-diiodophenyl]propanoic acid] | 40-500 fold |  |  |  |  |  |  | 
2 | N[C@H](Cc1cc(I)c(Oc2ccc(O)cc2)c(I)c1)C(=O)O [3,5-D-T2] |  | 7 of 13 | 2 of the 13 | 20 | 88 | ineffective | 5 | 8
